# Read-outs that look alike come from different tables or passages of the source.
# Experiments:
# CBL-B (residues 36-427) = target: T1, CBL-B (residues 36-427) (Homo sapiens, UniProt Q13191); assay: Ligand Displacement Assay (LDA), HTRF competitive binding against BODIPY-labeled fluorescent tracer, CBL-B; conditions: geometric mean of the number of tests, read-out: CBL-B Ki (nM) GMean
# T1 construct: Purified CBL-B (residues 36-427) and C-CBL (residues 46-435) proteins from baculovirus-infected insect cells; made in house; host or cells: baculovirus-infected insect cells
# How it was run: (§1)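 Insect-cell (baculovirus) protein, N-term AviTag biotinylated via BirA, captured by SA-Tb; BODIPY tracer, KD measured per protein. 3-fold serial dilutions, duplicate, […], 2% DMSO final. Ki (nM) = geomean of runs.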
# C-CBL (residues 46-435) = target: T2, C-CBL (residues 46-435) (Homo sapiens, UniProt P22681); assay: Ligand Displacement Assay (LDA), HTRF competitive binding against BODIPY-labeled fluorescent tracer, C-CBL; conditions: geometric mean of the number of tests, read-out: C-CBL Ki (nM) GMean
# T2 construct: Purified CBL-B (residues 36-427) and C-CBL (residues 46-435) proteins from baculovirus-infected insect cells; made in house; host or cells: baculovirus-infected insect cells
# T2 sequence (P22681 46-435): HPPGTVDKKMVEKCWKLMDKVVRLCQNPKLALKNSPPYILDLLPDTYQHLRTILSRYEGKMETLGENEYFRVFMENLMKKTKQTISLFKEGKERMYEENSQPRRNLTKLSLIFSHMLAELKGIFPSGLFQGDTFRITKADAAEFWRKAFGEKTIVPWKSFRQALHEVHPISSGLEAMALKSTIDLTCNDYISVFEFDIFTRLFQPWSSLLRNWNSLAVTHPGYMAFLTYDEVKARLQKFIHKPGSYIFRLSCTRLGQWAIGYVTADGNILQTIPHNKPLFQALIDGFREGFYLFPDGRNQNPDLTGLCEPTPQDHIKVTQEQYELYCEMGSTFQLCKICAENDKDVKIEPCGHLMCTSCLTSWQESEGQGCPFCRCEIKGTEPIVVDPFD
# How it was run: as §1
# CBL-B = target: T3, CBL-B (Homo sapiens, UniProt Q13191); assay: Jurkat HiBit-IL2 assay (c-CBL KO), reporter cell line expressing CBL-B only; type: cell-based; conditions: geometric mean, read-out: C-CBL KO EC50 (nM) GMean
# T3 construct: endogenous in cells; host or cells: Jurkat HiBit-IL2 reporter cells, C-CBL knocked out by CRISPR
# From the text: (§2) Jurkat HiBit-IL2 Assay (WT, c-CBL KO, CBL-B KO)
# (§3) The purpose of the Jurkat HiBit-IL2 assay is to evaluate the effect of the inhibition of CBL-B and/or C-CBL on TCR/CD28 stimulated interleukin-2 (IL-2) secretion.
# (§4) The expression of IL-2 can then be accurately measured by HiBit luciferase assay. Further, C-CBL or CBL-B was knocked out by CRISPR respectively in this Jurkat HiBit-IL2 reporter cell line to create reporter cell line expressing CBL-B only (c-CBL knockout (KO)) or C-CBL only (CBL-B KO).
# (§5) All three reporter cell lines were maintained in RPMI-1640 media with GlutaMax, 10% fetal bovine serum, 100 units/ml of penicillin, and 100 μg/ml of streptomycin at 37° C., 5% CO2, at a cell density 1×10e5-2×10e6 viable cells/ml. Serial diluted compounds in DMSO (40 nl/well, final 0.1% DMSO in assay cell culture) were plated into 384-well white-wall clear-bottom cell culture plates. Reporter cells were pelleted and resuspended in fresh cell culture medium to 0.66×10e6 cells/ml and added to the assay plate at 30 μl/well (20,000 cells/well). The cells were incubated with compounds for 1 hour at 37° C., 5% CO2. 10 μl/well of anti-CD3 antibody (OKT3) and anti-CD28 antibody (CD28.2) prediluted in fresh cell culture medium at 4× final concentration (anti-CD3 mAb: 4 μg/ml; anti-CD28 mAb: 8 μg/ml) was added into the cells (final concentration of anti-CD3 mAb: 1 μg/ml; anti-CD28 mAb: 2 μg/ml). The cells were cultured for another 4 hours at 37° C., 5% CO2. The Nano-Glo HiBiT Lytic Reagent was prepared following the manufacturer's protocol. 20 ul/well of the Nano-Glo HiBiT Lytic Reagent was added into the reporter cell culture assay plate and incubated at room temperature (20-25° C.) for 15 minutes. The plates were read on a Perkin-Elmer EnVision plate reader with 0.1 second integration time. Data were normalized to “Fold of Effect” with the anti-CD3 and anti-CD28 antibodies only samples as the baseline activation level and EC50 was calculated. The EC50 (nM) values reported are the geometric means (GMean) of the number of tests conducted.
# C-CBL = target: T4, C-CBL (Homo sapiens, UniProt P22681); assay: Jurkat HiBit-IL2 assay (CBL-B KO), reporter cell line expressing C-CBL only; type: cell-based; conditions: geometric mean, read-out: CBL-B KO EC50 (nM) GMean
# T4 construct: endogenous in cells; host or cells: Jurkat HiBit-IL2 reporter cells, CBL-B knocked out by CRISPR
# From the text: as §2, §3, §4, §5
# [1] = C-CBL KO (expressing CBL-B only), Table 16b (further repetition)
# [2] = c-CBL KO (CBL-B only), anti-CD3/anti-CD28 stimulation 4 hours, Table 16a
# [3] = CBL-B KO (C-CBL only), anti-CD3/anti-CD28 stimulation 4 hours, Table 16a
# [4] = CBL-B KO (expressing C-CBL only), Table 16b (further repetition)
Compound,Ki (CBL-B (residues 36-427)),Ki (C-CBL (residues 46-435)),EC50 (CBL-B; [1]),EC50 (CBL-B; [2]),EC50 (C-CBL; [3]),EC50 (C-CBL; [4])
"C[C@H](N[C@@H]1COC[C@@H]1O)c1nc(C(F)(F)F)cc2c(-c3cccc([C@H](c4nncn4C)C4CCC4)c3)n[nH]c12 (single isomer, unassigned) [Example D20]",1.7 nM,2.3 nM,11 nM,4 nM,30 nM,31 nM
"C[C@H](N[C@H]1CC[C@@H]1O)c1nc(C(F)(F)F)cc2c(-c3cccc([C@H](c4nncn4C)C4CCC4)c3)n[nH]c12 (single isomer, unassigned) [Example D21]",5.4 nM,68.1 nM,107 nM,39 nM,420 nM,1150 nM
"C[C@H](N[C@@H]1CC[C@H]1O)c1nc(C(F)(F)F)cc2c(-c3cccc([C@H](c4nncn4C)C4CCC4)c3)n[nH]c12 (single isomer, unassigned) [Example D23]",1.8 nM,9.9 nM,21 nM,6 nM,63 nM,124 nM
"C[C@@H](N[C@@H]1CC[C@H]1O)c1nc(C(F)(F)F)cc2c(-c3cccc([C@H](c4nncn4C)C4CCC4)c3)n[nH]c12 (single isomer, unassigned) [Example D24]",2.2 nM,22.3 nM,58 nM,22 nM,285 nM,452 nM
"C[C@H](NC[C@@H](C)O)c1nc(C(F)(F)F)cc2c(-c3cccc([C@H](c4nncn4C)C4CCC4)c3)n[nH]c12 (single isomer, unassigned) [Example D25]",6.4 nM,51.1 nM,101 nM,20 nM,174 nM,359 nM
"C[C@@H](O)CN[C@H](C)c1nc(C(F)(F)F)cc2c(-c3cccc([C@H](c4nncn4C)C4CCC4)c3)n[nH]c12 (single isomer, unassigned) [Example D26]",1.8 nM,14 nM,30 nM,9 nM,122 nM,180 nM
"C[C@H](N[C@@H](C)CO)c1nc(C(F)(F)F)cc2c(-c3cccc([C@H](c4nncn4C)C4CCC4)c3)n[nH]c12 (single isomer, unassigned) [Example D27]",1 nM,9.1 nM,24 nM,11 nM,194 nM,209 nM
"C[C@@H](N[C@@H]1CC[C@@H]1O)c1nc(C(F)(F)F)cc2c(-c3cccc([C@H](c4nncn4C)C4CCC4)c3)n[nH]c12 (single isomer, unassigned) [Example D29]",1.9 nM,23.7 nM,36 nM,11 nM,139 nM,224 nM
"C[C@@H](NC1CC[C@H]1O)c1nc(C(F)(F)F)cc2c(-c3cccc([C@H](c4nncn4C)C4CCC4)c3)n[nH]c12 (single isomer, unassigned) [Example D31]",4 nM,27.3 nM,56 nM,16 nM,199 nM,258 nM
"C[C@@H](NC(C)(C)CO)c1nc(C(F)(F)F)cc2c(-c3cccc([C@H](c4nncn4C)C4CCC4)c3)n[nH]c12 (single isomer, unassigned) [Example D55]",4.8 nM,76.5 nM,80 nM,,,642 nM
"C[C@@H](N[C@@H]1COC[C@@H]1O)c1nc(C(F)(F)F)cc2c(-c3cccc([C@H](c4nncn4C)C4CCC4)c3)n[nH]c12 (single isomer, unassigned) [Example D56]",6.2 nM,62.3 nM,84 nM,,,365 nM
"C[C@H](N[C@@H]1COC[C@H]1O)c1nc(C(F)(F)F)cc2c(-c3cccc([C@H](c4nncn4C)C4CCC4)c3)n[nH]c12 (single isomer, unassigned) [Example D59]",2.6 nM,26.6 nM,267 nM,,,1260 nM
"C[C@@H](CO)N[C@H](C)c1nc(C(F)(F)F)cc2c(-c3cccc([C@H](c4nncn4C)C4CCC4)c3)n[nH]c12 (single isomer, unassigned) [Example D63]",8.4 nM,67 nM,121 nM,,,577 nM
"C[C@@H](c1nc(C(F)(F)F)cc2c(-c3cccc([C@H](c4nncn4C)C4CCC4)c3)n[nH]c12)N1CC[C@H]1CO (single isomer, unassigned) [Example D64]",8.7 nM,58 nM,134 nM,,,483 nM
"C[C@H](c1nc(C(F)(F)F)cc2c(-c3cccc([C@H](c4nncn4C)C4CCC4)c3)n[nH]c12)N1CC[C@H]1CO (single isomer, unassigned) [Example D65]",13.7 nM,110 nM,468 nM,,,1180 nM
"C[C@@H](c1nc(C(F)(F)F)cc2c(-c3cccc([C@H](c4nncn4C)C4CCC4)c3)n[nH]c12)N1CC(C)(O)C1 (single isomer, unassigned) [Example D66]",2.6 nM,22.1 nM,72 nM,,,409 nM
"C[C@H](c1nc(C(F)(F)F)cc2c(-c3cccc([C@H](c4nncn4C)C4CCC4)c3)n[nH]c12)N1CC(C)(O)C1 (single isomer, unassigned) [Example D67]",10.9 nM,78.5 nM,321 nM,,,1520 nM
"C[C@@H](c1nc(C(F)(F)F)cc2c(-c3cccc([C@H](c4nncn4C)C4CCC4)c3)n[nH]c12)N1CC[C@@H](O)C1 (single isomer, unassigned) [Example D68]",15.2 nM,134 nM,293 nM,,,1710 nM
"C[C@H](c1nc(C(F)(F)F)cc2c(-c3cccc([C@H](c4nncn4C)C4CCC4)c3)n[nH]c12)N1CC[C@@H](O)C1 (single isomer, unassigned) [Example D69]",9.3 nM,54.3 nM,154 nM,,,490 nM
"C[C@@H](c1nc(C(F)(F)F)cc2c(-c3cccc([C@H](c4nncn4C)C4CCC4)c3)n[nH]c12)N1CC[C@H](O)C1 (single isomer, unassigned) [Example D70]",7.1 nM,48.4 nM,163 nM,,,618 nM
"C[C@@H](c1nc(C(F)(F)F)cc2c(-c3cccc([C@H](c4nncn4C)C4CCC4)c3)n[nH]c12)N1CC[C@H](O)C1 (single isomer, unassigned) [Example D71]",1.3 nM,13 nM,77 nM,,,434 nM
"C[C@H](NC1(CO)CCC1)c1nc(C(F)(F)F)cc2c(-c3cccc([C@H](c4nncn4C)C4CCC4)c3)n[nH]c12 (single isomer, unassigned) [Example D72]",8.7 nM,116 nM,103 nM,,,563 nM
